Measurements from ChEMBL document CHEMBL1153593, “Recent developments in the design and synthesis of hybrid molecules based on aminoquinoline ring and their antiplasmodial evaluation” (Eur J Med Chem, 2009).

Legend:
[1] = tested on: Plasmodium berghei; test: Gametocytocidal activity as infected mosquitoes against Plasmodium berghei at 10 uM/kg; assay type: functional
[2] = tested on: Plasmodium berghei; test: Gametocytocidal activity as oocysts per mosquito against Plasmodium berghei; assay type: functional
[3] = Inhibition of Plasmodium falciparum falcipain-2
[4] = tested on: Plasmodium falciparum; test: Antimalarial activity against chloroquine-resistant Plasmodium falciparum K1; assay type: functional, organism-based
[5] = tested on: Plasmodium falciparum; test: Antimalarial activity against chloroquine-resistant Plasmodium falciparum W2; assay type: functional, organism-based
[6] = tested on: Plasmodium falciparum; test: microbe, parasite or virus in culture; conditions: D10
Description: Antimalarial activity against chloroquine-sensitive Plasmodium falciparum D10

[7] = Stability assessed as hydrolysis to metabolite in presence of 80% human plasma; assay type: ADME, cell-free

Compound	IC50 [3]	IC50 [4]	IC50 [5]	IC50 [6]	other results
COc1cc(NC(C)CCCN2C(=O)[C@@H](C(C)C)NC23CCCC3)c2ncccc2c1 (some centres undefined)	–	–	–	–	Activity [1]: 35%; Activity [2]: 4.2
NC(=S)N/N=C/c1ccc(O)c(CN2CCN(c3ccnc4cc(Cl)ccc34)CC2)c1O	2.25 µM	–	–	–	–
CCN(CC)Cc1c(O)ccc(/C=N/NC(=O)NCCNc2ccnc3cc(Cl)ccc23)c1O	2.6 µM	–	–	–	–
O=C(CN(CCCNc1ccnc2cc(Cl)ccc12)C(=O)c1cnccn1)C1CCCCC1	–	0.521 µM	0.877 µM	0.242 µM	–
CC(C)(C)C(=O)CN(CCCNc1ccnc2cc(Cl)ccc12)C(=O)c1ccncc1	–	18.2 µM	3.81 µM	> 20 µM	–
O=C(NCCNc1ccnc2cc(Cl)ccc12)N/N=C/c1ccc(O)c(CN2CCOCC2)c1O	> 20 µM	–	–	–	–
O=C(NCCNc1ccnc2cc(Cl)ccc12)N/N=C/c1ccc(O)c(CN2CCCCC2)c1O	0.63 µM	–	–	–	–
CC(C)(C)C(=O)CN(CCNc1ccnc2cc(Cl)ccc12)C(=O)c1ccc(O)cc1O	–	5.79 µM	4.15 µM	5.66 µM	–
COc1cc(NC(C)CCCN2C(=O)[C@@H](Cc3ccccc3)NC2(C)C)c2ncccc2c1 (some centres undefined)	–	–	–	–	Activity [1]: 76%; Activity [2]: 61.2; Stability [7]: Stable
O=C(NCCNc1ccnc2cc(Cl)ccc12)N/N=C/c1ccc(O)c(CN2CCCC2)c1O	0.72 µM	–	–	–	–
COc1cc(NC(C)CCCN2C(=O)[C@@H](C(C)C)NC23CCCCCC3)c2ncccc2c1 (some centres undefined)	–	–	–	–	Activity [1]: 65%; Activity [2]: 17.7
Cc1ccc2c(c1)/C(=N\NC(N)=S)C(=O)N2CCNc1ccnc2cc(Cl)ccc12	11.6 µM	0.1 µM	0.051 µM	0.079 µM	–
O=C(CN(CCCNc1ccnc2cc(Cl)ccc12)C(=O)c1ccncc1)C1CCCCC1	–	0.073 µM	1.57 µM	0.237 µM	–
CC(C)(C)NC(=O)C1(C)CCC(=O)N1CCCCCCNc1ccnc2cc(Cl)ccc12 (centres undefined)	–	–	0.18 µM	–	–
CC(C)(C)C(=O)CN(CCCNc1ccnc2cc(Cl)ccc12)C(=O)c1cnccn1	–	2.29 µM	1.65 µM	1.38 µM	–
NC(=S)N/N=C1/C(=O)N(CCNc2ccnc3cc(Cl)ccc23)c2ccccc21	14.7 µM	0.71 µM	0.24 µM	0.32 µM	–
O=C(CN(CCCNc1ccnc2cc(Cl)ccc12)C(=O)c1ccc(O)cc1O)C1CCCCC1	–	3.83 µM	5.94 µM	1.67 µM	–
O=C(NCCNc1ccnc2cc(Cl)ccc12)N/N=C/c1ccc(O)c(CN2CCN(c3ccnc4cc(Cl)ccc34)CC2)c1O	3.16 µM	–	–	–	–
CC(C)(C)C(=O)CN(CCNc1ccnc2cc(Cl)ccc12)C(=O)c1ccncc1	–	1.1 µM	0.991 µM	1.06 µM	–
CC(C)(C)C(=O)CN(CCNc1ccnc2cc(Cl)ccc12)C(=O)c1cnccn1	–	1.13 µM	1.19 µM	0.712 µM	–
NC(=S)N/N=C1/C(=O)N(CCNc2ccnc3cc(Cl)ccc23)c2ccc(Cl)cc21	–	0.054 µM	–	0.095 µM	–
CN1CCN(Cc2c(O)ccc(/C=N/NC(=O)NCCNc3ccnc4cc(Cl)ccc34)c2O)CC1	> 20 µM	–	–	–	–
O=C(CN(CCNc1ccnc2cc(Cl)ccc12)C(=O)c1cnccn1)C1CCCCC1	–	1.35 µM	> 10 µM	0.793 µM	–
COc1cc(NC(C)CCCN2C(=O)CNC2(C)C)c2ncccc2c1 (centres undefined)	–	–	–	–	Activity [1]: 21%; Activity [2]: 6.1
O=C(CN(CCNc1ccnc2cc(Cl)ccc12)C(=O)c1ccncc1)C1CCCCC1	–	0.531 µM	0.619 µM	0.54 µM	–
NC(=O)N/N=C/c1ccc(O)c(CN2CCN(c3ccnc4cc(Cl)ccc34)CC2)c1O	> 20 µM	–	–	–	–
COc1cc(NC(C)CCCN2C(=O)[C@@H](C)NC23CCCCC3)c2ncccc2c1 (some centres undefined)	–	–	–	–	Activity [1]: 20%; Activity [2]: 0.8
CC1(C(=O)NC2CCCCC2)CCCC(=O)N1CCCCCCNc1ccnc2cc(Cl)ccc12 (centres undefined)	17.6 µM	–	0.096 µM	–	–
COc1cc(NC(C)CCCN2C(=O)[C@@H](Cc3ccccc3)NC23CCCC3)c2ncccc2c1 (some centres undefined)	–	–	–	–	Activity [1]: 65%; Activity [2]: 51.6
